Experimental findings from patent US6444615B1, “Herbicidal imidazolidinetrione and thioxo-imidazolidinediones” (Dow AgroSciences LLC, priority 2000, dated 2002) are described below.

Series [1] concerns Smartweed, (pale) (Polygonum lapathifolium). In words: Herbicidal pre-emergence test, Smartweed (pale). It counts as in vivo. Particulars: 1200 g/ha, scale of 0-100, 0 no activity, 100 total control, about two or four weeks after application. Here is the method:
(§1) Listed below, a typical planting design for the test, consisting of four monocot weeds, four dicot weeds and one sedge weed. [table] For each compound, evaluation tests were carried out according to the following procedures: For preemergence tests, immediately after planting, the test compound was sprayed directly onto the soil surface. The flats or pots were placed in the greenhouse and then watered. For postemergence tests, seeds were allowed to germinate and grow for 10 to 21 days before application. The test plants were selected for uniformity, size and stage of development. The test plants were then treated with the test compound, returned to the greenhouse and watered. Untreated plants were used as a comparison. The compound to be evaluated was dissolved in an appropriate solvent, usually acetone, or a formulation of the evaluated compounds as described above, was added to the water, and sprayed over the flats or pots using a carrier volume equivalent to 187 or 468 liters per hectare to give a rate of application in grams per hectare (g/ha). About two or four weeks after application of the test compounds, the state of the plant was observed. Each species was evaluated on a scale of 0-100 in which 0 equals no activity and 100 equals total control.

Series [2] deals with Barnyardgrass (Echinochloa crusgalli). As to the kind of experiment: Herbicidal pre-emergence test, Barnyardgrass. Particulars: 1200 g/ha, scale of 0-100, 0 no activity, 100 total control, about two or four weeks after application. It counts as in vivo. How it is done: as §1
The subject of series [3] is Foxtail, (green) (Setaria viridis). As to the kind of experiment: Herbicidal post-emergence test, Foxtail (green). It counts as in vivo. Particulars: 1200 g/ha, scale of 0-100, 0 no activity, 100 total control, about two or four weeks after application. Here is the method:
as §1

The test system of series [4] is Barnyardgrass (Echinochloa crusgalli). As to the kind of experiment: Herbicidal post-emergence test, Barnyardgrass. It counts as in vivo. Particulars: 1200 g/ha, scale of 0-100, 0 no activity, 100 total control, about two or four weeks after application. How it is done:
as §1

Series [5] deals with Velvetleaf (Abutilon theophrasti). In words: Herbicidal post-emergence test, Velvetleaf. The class given is in vivo. Particulars: 1200 g/ha, scale of 0-100, 0 no activity, 100 total control, about two or four weeks after application. Here is the method: as §1
Series [6] has as its system Nutsedge, (yellow) (Cyperus esculentus). In words: Herbicidal pre-emergence test, Nutsedge (yellow). Particulars: 1200 g/ha, scale of 0-100, 0 no activity, 100 total control, about two or four weeks after application. It counts as in vivo. How it is done: as §1
Series [7] concerns Crabgrass (large) (Digitaria sanguinalis). In words: Herbicidal post-emergence test, Crabgrass (large). The class given is in vivo. Particulars: 1200 g/ha, scale of 0-100, 0 no activity, 100 total control, about two or four weeks after application. Here is the method: as §1
Series [8] concerns Perennial Ryegrass (Lolium perenne). In words: Herbicidal pre-emergence test, Perennial Ryegrass. It counts as in vivo. Particulars: 1200 g/ha, scale of 0-100, 0 no activity, 100 total control, about two or four weeks after application. How it is done: as §1
Series [9] has as its system Nightshade, (black) (Solanum nigrum). In words: Herbicidal pre-emergence test, Nightshade (black). It counts as in vivo. Particulars: 1200 g/ha, scale of 0-100, 0 no activity, 100 total control, about two or four weeks after application. Here is the method: as §1
For series [10], the system named is Hairy Beggarticks (Bidens pilosa). As to the kind of experiment: Herbicidal pre-emergence test, Hairy Beggarticks. It counts as in vivo. Particulars: 1200 g/ha, scale of 0-100, 0 no activity, 100 total control, about two or four weeks after application. Here is the method: as §1
Series [11] concerns Nutsedge, (yellow) (Cyperus esculentus). As to the kind of experiment: Herbicidal post-emergence test, Nutsedge (yellow). The class given is in vivo. Particulars: 1200 g/ha, scale of 0-100, 0 no activity, 100 total control, about two or four weeks after application. Here is the method:
as §1

Series [12] deals with Velvetleaf (Abutilon theophrasti). In words: Herbicidal pre-emergence test, Velvetleaf. It counts as in vivo. Particulars: 1200 g/ha, scale of 0-100, 0 no activity, 100 total control, about two or four weeks after application. Here is the method: as §1
The subject of series [13] is Perennial Ryegrass (Lolium perenne). As to the kind of experiment: Herbicidal post-emergence test, Perennial Ryegrass. The class given is in vivo. Particulars: 1200 g/ha, scale of 0-100, 0 no activity, 100 total control, about two or four weeks after application. Here is the method:
as §1

For series [14], the system named is Smartweed, (pale) (Polygonum lapathifolium). In words: Herbicidal post-emergence test, Smartweed (pale). It counts as in vivo. Particulars: 1200 g/ha, scale of 0-100, 0 no activity, 100 total control, about two or four weeks after application. Here is the method:
as §1

In series [15] the test system is Foxtail, (green) (Setaria viridis). As to the kind of experiment: Herbicidal pre-emergence test, Foxtail (green). It counts as in vivo. Particulars: 1200 g/ha, scale of 0-100, 0 no activity, 100 total control, about two or four weeks after application. Here is the method: as §1
Series [16] deals with Hairy Beggarticks (Bidens pilosa). As to the kind of experiment: Herbicidal post-emergence test, Hairy Beggarticks. The class given is in vivo. Particulars: 1200 g/ha, scale of 0-100, 0 no activity, 100 total control, about two or four weeks after application. Here is the method: as §1
The subject of series [17] is Crabgrass (large) (Digitaria sanguinalis). As to the kind of experiment: Herbicidal pre-emergence test, Crabgrass (large). It counts as in vivo. Particulars: 1200 g/ha, scale of 0-100, 0 no activity, 100 total control, about two or four weeks after application. How it is done:
as §1

Series [18] has as its system Nightshade, (black) (Solanum nigrum). As to the kind of experiment: Herbicidal post-emergence test, Nightshade (black). Particulars: 1200 g/ha, scale of 0-100, 0 no activity, 100 total control, about two or four weeks after application. The class given is in vivo. How it is done:
as §1

As for `O=C1NC(=O)N(C2(OC3CC(F)CC3Cl)C=CC=CC2)C1=O` (centres unmarked) [Compound 2, 1-(2-fluoro-4-chloro-5-cyclopentyloxy)phenyl-2,4,5-imidazolidinetrione], the melting point (as a rule, the temperature, or range, at which the solid turns liquid) fell in the range of 130 to 140 °C.

`COCC1(N2C(=O)NC(=O)C2=O)C=CC=C(OC2CC(F)CC2Cl)C1` (centres unmarked) [Compound 5, 1-methoxymethyl-3-(2-fluoro-4-chloro-5-cyclopentyloxy)phenyl-2,4,5-imidazolidinetrione] registered a melting point of 90 to 91 °C.

`C#CCN1C(=O)COc2cc(F)c(N3C(=O)C(=O)N(CC(F)(F)F)C3=O)cc21` [Compound 24]: the “Herbicidal Activity SMT (pre-emergence)” value in [1] stood at 0. For the same molecule, the “Herbicidal Activity BYG (pre-emergence)” value in series [2] is 0/0. For the same molecule, the “Herbicidal Activity FOX (post-emergence)” value in series [3] is 0/0. In addition, the “Herbicidal Activity BYG (post-emergence)” value in series [4] is reported as 0/0. For the same molecule, in [5], the “Herbicidal Activity VEL (post-emergence)” value is listed as 60. Moreover, the “Herbicidal Activity NUT (pre-emergence)” value in [6] is reported as 0/0. Besides, the “Herbicidal Activity CRB (post-emergence)” value in [7] is given as 0/0. For the same molecule, the “Herbicidal Activity RYE (pre-emergence)” value in [8] is given as 0/0. For the same molecule, the “Herbicidal Activity NS (pre-emergence)” value in series [9] stood at 0. Besides, the “Herbicidal Activity BID (pre-emergence)” value in [10] was found to be 0. Besides, in [11], the “Herbicidal Activity NUT (post-emergence)” value was 0/0. In addition, in series [12], the “Herbicidal Activity VEL (pre-emergence)” value was 0. Also, the “Herbicidal Activity RYE (post-emergence)” value in series [13] is 0/0. Also, the “Herbicidal Activity SMT (post-emergence)” value in series [14] was determined as 40. In addition, the “Herbicidal Activity FOX (pre-emergence)” value in series [15] is reported as 0/0. The “Herbicidal Activity BID (post-emergence)” value in series [16] turned out to be 40. Further, in series [17], the “Herbicidal Activity CRB (pre-emergence)” value is given as 0/0. Further, the “Herbicidal Activity NS (post-emergence)” value in [18] worked out at 60.

In the case of `C#CCN1C(=O)COc2cc(F)c(N3C(=O)C(=O)N(CCC)C3=S)cc21` [Compound 25], in series [1], the “Herbicidal Activity SMT (pre-emergence)” value is listed as 100/100. Further, the “Herbicidal Activity BYG (pre-emergence)” value in series [2] is given as 100. In series [3], the “Herbicidal Activity FOX (post-emergence)” value is reported as 60. For the same molecule, the “Herbicidal Activity BYG (post-emergence)” value in series [4] is listed as 30. For the same molecule, in [5], the “Herbicidal Activity VEL (post-emergence)” value is recorded as 100/100. The “Herbicidal Activity NUT (pre-emergence)” value in series [6] was 80. In addition, the “Herbicidal Activity CRB (post-emergence)” value in series [7] is listed as 30. Further, the “Herbicidal Activity RYE (pre-emergence)” value in series [8] stood at 85. Also, the “Herbicidal Activity NS (pre-emergence)” value in series [9] was 100/100. For the same molecule, the “Herbicidal Activity BID (pre-emergence)” value in series [10] was 100/100. Moreover, the “Herbicidal Activity NUT (post-emergence)” value in series [11] came out at 40. The “Herbicidal Activity VEL (pre-emergence)” value in [12] was 100/100. The “Herbicidal Activity RYE (post-emergence)” value in [13] is 0. Further, the “Herbicidal Activity SMT (post-emergence)” value in series [14] is reported as 100/100. Further, in series [15], the “Herbicidal Activity FOX (pre-emergence)” value turned out to be 100. In addition, the “Herbicidal Activity BID (post-emergence)” value in [16] is recorded as 100/100. In [17], the “Herbicidal Activity CRB (pre-emergence)” value amounted to 100. Further, the “Herbicidal Activity NS (post-emergence)” value in [18] is recorded as 100/100.

On to `CCCN1C(=O)C(=O)N(c2cc(F)c(F)cc2F)C1=O` [Compound C1, reference compound], for which, in series [1], the “Herbicidal Activity SMT (pre-emergence)” value is listed as 0. For the same molecule, the “Herbicidal Activity BYG (pre-emergence)” value in series [2] is reported as 0/0. Also, in series [3], the “Herbicidal Activity FOX (post-emergence)” value is 0/0. The “Herbicidal Activity BYG (post-emergence)” value in series [4] is 0/0. Moreover, the “Herbicidal Activity VEL (post-emergence)” value in series [5] came to 60. Moreover, in [6], the “Herbicidal Activity NUT (pre-emergence)” value was 0/0. In series [7], the “Herbicidal Activity CRB (post-emergence)” value is given as 0/0. The “Herbicidal Activity RYE (pre-emergence)” value in series [8] is 0/0. In series [9], the “Herbicidal Activity NS (pre-emergence)” value is on record as 0. For the same molecule, the “Herbicidal Activity BID (pre-emergence)” value in [10] amounted to 0. Also, the “Herbicidal Activity NUT (post-emergence)” value in series [11] was 0/0. Also, in series [12], the “Herbicidal Activity VEL (pre-emergence)” value worked out at 0. Moreover, the “Herbicidal Activity RYE (post-emergence)” value in series [13] is 0/0. Further, the “Herbicidal Activity SMT (post-emergence)” value in series [14] is on record as 60. For the same molecule, in series [15], the “Herbicidal Activity FOX (pre-emergence)” value is on record as 0/0. Further, the “Herbicidal Activity BID (post-emergence)” value in [16] was 40. In addition, the “Herbicidal Activity CRB (pre-emergence)” value in [17] is 0/0. In addition, the “Herbicidal Activity NS (post-emergence)” value in series [18] is reported as 80.
